The text below walks through data of the METLIN SMRT retention time set (Domingo-Almenara et al. 2019).

Each structure is given as a SMILES string.

This data set is described as follows: gradient 5% acetonitrile 3 min, to 50% in 2 min, to 85% in 15 min, held 3 min, 100 µL/min. Particulars: column: Zorbax Extend-C18 2.1 x 50 mm; eluents: water / acetonitrile, 0.1% formic acid. An outline of the steps: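 In both positive and negative ionization mode, a quadrupole time-of-flight mass spectrometer coupled to HPLC analyzed pure standards run in mixtures of ~100 molecules. The Zorbax Extend-C18 column (2.1 × 50 mm, 1.8 μm) was operated at 100 μL/min with water and acetonitrile, each containing 0.1% formic acid. The dead volume was 40 μL and the dwell volume 900 μL. Retention time came from adduct peaks that were computationally picked and individually inspected by hand.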
The molecule `CCCC(=O)N1CCc2c([nH]c3ccccc23)C1c1cccc(OCC)c1` (stereo not given) came in with an RP-LC retention time of 1150 s.

With `Cc1ccc(NC(=O)N2CCCC2C(=O)NC2CC2)cc1` (stereo not given), the RP-LC retention time amounted to 668 s.

Consider `Cc1cccc(C(=O)NCc2ccc3c(c2)nnn3C)c1`, for which the RP-LC retention time worked out at 700 s.

The molecule `O=c1ccc(-c2ccc(Cl)cc2)nn1CCc1nc(-c2ccc3c(c2)OCO3)no1` yielded an RP-LC retention time of 1040 s.

`CCOC(=O)c1nc(N(C)c2cc(C)ccc2C)c2ccccc2n1`: the RP-LC retention time turned out to be 1010 s.

Regarding `Cc1cc(F)ccc1NC(=O)c1csc(-c2ccc(N3CCCC3)nc2)n1`, the RP-LC retention time is 768 s.

In turn, `CC(C)Cn1c(=O)c2cc(C(=O)NCCC3CCN(C(C)C)CC3)nn2c2ccccc21` showed an RP-LC retention time of 694 s.

Molecule `COc1ccc(Cl)cc1NC(=O)N1CCN(C2=CC3=NC(C)CN3C=N2)CC1` (stereo not given) yielded an RP-LC retention time of 664 s.

Molecule `O=C(Cc1ccc(Cl)cc1)N1CCN(c2nnc3ccccn23)CC1` showed an RP-LC retention time of 663 s.

For the molecule `CCCCNC(=O)C1CCN(c2nc(NC(C)=O)c(C(=O)N3CCCC3)s2)CC1`, the RP-LC retention time worked out at 683 s.

Consider `CCC(=O)N1CCc2cc(C(N)=O)ccc21`, for which the RP-LC retention time was determined as 613 s.

`Cc1ccc(CNC(=O)N2CCC3(CC2)NC(=O)c2cccc(Cl)c2N3)cc1` had an RP-LC retention time of 773 s.

`COc1ccc(CCNC(=O)N2CC(c3nc(-c4cccs4)no3)C2)cc1` returned an RP-LC retention time of 773 s.

Take `CC(C)c1noc(C2Cc3ccccc3N2C(=O)NC2CCCC2)n1` (stereo not given): the RP-LC retention time came to 650 s.

`Cn1cc2c(n1)c(=O)n(Cc1ccc(Cl)cc1)c1nn(Cc3ccccc3)c(=O)n21` came in with an RP-LC retention time of 960 s.

`COc1ccccc1C(=O)Nc1nc(-c2ccc3c(c2)NC(=O)CO3)c(C)s1` yielded an RP-LC retention time of 889 s.

`NNC(=O)c1nnsc1-c1csnn1` had an RP-LC retention time of 657 s.

In turn, `COc1ccc(-c2noc(C3CCCN3C(=O)Nc3cccc(Br)c3)n2)cc1` (stereo not given) registered an RP-LC retention time of 972 s.

As for `Cc1cccc(NC(=O)N2CCC(c3nc(C(=O)N4CCCC4)c(C)o3)CC2)c1C`, the RP-LC retention time is 781 s.

For `Cc1ccc(-c2nc(N3CCOCC3)ncc2C(=O)O)cc1`, the RP-LC retention time worked out at 770 s.

In the case of `Cc1ccc(-c2cc3c(=O)n(Cc4noc(CN5CCCCCCC5)n4)ccn3n2)cc1C`, the RP-LC retention time amounted to 806 s.

The molecule `COc1ccc(-c2cc3n(n2)CCCN(C(=O)Nc2ccccc2F)C3)cc1OC` had an RP-LC retention time of 885 s.

`Cc1ccc(-c2noc(Cc3nc(-c4ccc(C)cc4C)cs3)n2)cc1`: the RP-LC retention time came out at 1190 s.

As for `CCCC(=O)Nc1ccc2nc(N3CCN(c4cc(Cl)ccc4C)CC3)cc(C(=O)O)c2c1`, the RP-LC retention time is 746 s.

In the case of `Cc1ccc(Cn2cccc2C(=O)C(=O)N2CCN(c3ccccn3)CC2)cc1`, the RP-LC retention time stood at 690 s.

Molecule `CNC(=O)C1CCCN(c2nc3ncn(CC(=O)Nc4ccccc4C(=O)OC)c(=O)c3s2)C1` (stereo not given) displayed an RP-LC retention time of 649 s.

In turn, `CC(C)(C)c1csc(-c2csc(S(=O)(=O)NCc3ccc(F)c(Cl)c3)c2)n1` displayed an RP-LC retention time of 1280 s.

In the case of `CCn1c(=O)c2ccccc2n(Cc2nc(-c3ccccc3Br)no2)c1=O`, the RP-LC retention time came to 1020 s.

`COc1ccc(/C=C/c2ccccc2F)cc1` came in with an RP-LC retention time of 1170 s.

`Cc1nn2c(CNC(=O)c3ccccn3)c(-c3ccccc3)nc2s1` displayed an RP-LC retention time of 796 s.

`CC(C)Cn1c(=O)c2ccccc2n(Cc2nc(-c3cccc(Br)c3)no2)c1=O` came in with an RP-LC retention time of 1290 s.

With `CC(C)n1cnc(S(=O)(=O)N2CCC(C(=O)N3CCN(c4ccccc4F)CC3)CC2)c1`, the RP-LC retention time stood at 807 s.

`OCCCc1nc2ccccc2n1Cc1ccccc1Cl` had an RP-LC retention time of 568 s.

`CS(=O)(=O)c1ccccc1-c1nnc(NC(=O)c2cccc(N3C(=O)CCC3=O)c2)o1` came in with an RP-LC retention time of 609 s.

`CCCN1C(=O)COc2cc(-c3noc(C(=O)N4CCN(c5ccc(Cl)cc5)CC4)n3)ccc21`: the RP-LC retention time came to 1190 s.

`CC1(C)COc2ccc(NC(=O)c3ccc(Br)o3)cc2NC1=O` yielded an RP-LC retention time of 824 s.

In turn, `Cc1oc(-c2ccccc2)nc1Cn1cnc2nc3c(cc2c1=O)CC(C)CC3` (stereo not given) showed an RP-LC retention time of 1010 s.

`CCc1nn(CC)c(=O)c2cc(S(=O)(=O)NCc3ccc(F)cc3Cl)cn12`: the RP-LC retention time came out at 1020 s.

`CCCCNC(=O)Cc1nnc(-c2ccc(OC)cc2)o1`: the RP-LC retention time amounted to 736 s.

Take `Cc1cccc(NC(=O)c2[nH]c(C)c(S(=O)(=O)N3CCCC3)c2C)c1C`: the RP-LC retention time stood at 858 s.

The molecule `CN(C)C(=O)CC1CCOC2(CCN(C(=O)CCn3cnnn3)CC2)C1` (stereo not given) yielded an RP-LC retention time of 604 s.

With `COc1ccc(Nc2nc(N3CCN(c4ncccn4)CC3)nc3c2C(=O)CCC3)cc1`, the RP-LC retention time was determined as 1010 s.

The molecule `CCC(C)N1CC(=O)N(c2ccc(OC)c(Cl)c2)[C@@H]2CS(=O)(=O)C[C@@H]21` (stereo not given in full) showed an RP-LC retention time of 786 s.

With `CC(=O)N1c2ccc(S(=O)(=O)N3CCCC3)cc2CC1C(=O)NCCN(C)Cc1ccccc1` (stereo not given), the RP-LC retention time is 619 s.

Molecule `CCCCN(C)C(=O)C1CCCN(c2cnc3nccnc3c2)C1` (stereo not given) gave an RP-LC retention time of 686 s.

As for `CCCN1C(=O)c2ccccc2Sc2cc(-c3noc(C(C)NC(=O)c4ccco4)n3)ccc21` (stereo not given), the RP-LC retention time turned out to be 984 s.

`CCn1c(C(=O)NCCN2CCCC2)c(N2CCCC2=O)c2cc(OC)ccc21` had an RP-LC retention time of 624 s.

On to `COc1ccccc1NC(=O)Cn1c(=O)n(-c2ccc(F)cc2)c(=O)c2c1cc(C)n2C`, for which the RP-LC retention time stood at 833 s.

Turning to `O=C(NCCc1ccncc1)C1CN(C(=O)c2ccncc2)CC12CCCCC2` (stereo not given), the RP-LC retention time came out at 551 s.

`CCn1cc(CNC(=O)c2cc(-c3ccc4c(c3)OCO4)nc3ccccc23)c(C)n1` registered an RP-LC retention time of 818 s.

Molecule `Fc1ccc(-c2ccc(CNCC3CCCO3)o2)cc1` (stereo not given) displayed an RP-LC retention time of 649 s.

The molecule `CCc1nnc2sc(-c3cc(C)nc4ccc(Br)cc34)nn12` gave an RP-LC retention time of 892 s.

Molecule `COc1ccc(F)cc1S(=O)(=O)N1C[C@@H]2C[C@H]1C[C@@H]2NC(=O)c1ccccc1` gave an RP-LC retention time of 786 s.

In turn, `CCOC(=O)c1c(CN2CCN(CC#N)CC2)n(C)c2cc(Br)c(OC(C)=O)cc12` registered an RP-LC retention time of 706 s.

The molecule `Cc1cnc(C(=O)N2[C@H]3CC[C@@H]2c2cnc(-c4ccc(F)cc4)nc2C3)cn1` displayed an RP-LC retention time of 874 s.

For the molecule `O=C(CCc1nnn2c1CN(C(=O)c1ccoc1)CC2)N1CCOCC1`, the RP-LC retention time worked out at 580 s.

For the molecule `O=C(NCCc1csc(-c2ccccc2)n1)[C@H]1CCCN1C(=O)c1ccc(F)cc1`, the RP-LC retention time amounted to 812 s.

On to `CCCc1noc(-c2ccnc(-n3cnc(C(=O)N4CCCC(C)C4)c3)c2)n1` (stereo not given), for which the RP-LC retention time came to 944 s.

The molecule `O=c1c2sccc2n(Cc2nc(-c3ccccc3Cl)no2)c(=O)n1Cc1ccc(F)cc1` yielded an RP-LC retention time of 1110 s.

In turn, `CCNC(=O)N1CC(c2nc(-c3ccc(F)cc3)no2)C2(CCOCC2)C1` (stereo not given) had an RP-LC retention time of 751 s.

Take `CCn1nnc2c(SCc3cc(OC)cc(OC)c3)ncnc21`: the RP-LC retention time was 917 s.

Molecule `Cc1ccc(NS(=O)(=O)c2cc3c(s2)CCN(C(=O)C2CCC2)C3)cc1` showed an RP-LC retention time of 864 s.

`Cc1cc(C)cc(NC(=O)NC2CCN(c3cc(N4CCCC4)cnn3)C2)c1` (stereo not given) came in with an RP-LC retention time of 690 s.

For the molecule `Cc1c(Cl)cccc1NC(=O)CN1C(=O)CCCc2cc(S(=O)(=O)N3CCCC3)ccc21`, the RP-LC retention time was found to be 879 s.

`CC(C)n1cnc(S(=O)(=O)N2CCC(C(=O)Nc3ccc(Br)cc3F)CC2)c1` displayed an RP-LC retention time of 834 s.

Molecule `CCOC(=O)c1cnn(-c2ccc(Cl)nn2)c1C` came in with an RP-LC retention time of 871 s.

In turn, `Cc1ccc(CNC(=O)c2cc(C)no2)cc1` came in with an RP-LC retention time of 793 s.

Consider `O=C(NCc1ccccc1F)c1c(O)c2cccnc2n(-c2cccc(F)c2)c1=O`, for which the RP-LC retention time turned out to be 1170 s.

For the molecule `COc1ccc(CNC(=O)Cn2c(N3CCCC3)nc(C)cc2=O)cc1`, the RP-LC retention time was 612 s.

Consider `O=C(c1cccs1)N1N=C(c2ccc3c(c2)OCO3)CC1c1ccco1` (stereo not given), for which the RP-LC retention time was determined as 919 s.

`COCCO[C@H]1C(=O)N(C2CCN(S(=O)(=O)c3cn(C)cn3)CC2)[C@H]1c1ccncc1`: the RP-LC retention time turned out to be 556 s.

With `Cc1cc2[nH]c(C(=O)Nc3ccccc3F)c(CN(C)C)c2s1`, the RP-LC retention time came out at 654 s.

`COc1ccccc1C(=O)N1CCC(n2cnnc2-c2ccccc2)C1` (stereo not given): the RP-LC retention time came to 643 s.

The molecule `CN1C(=O)CC[C@]2(CNC(=O)COc3cccc(Cl)c3)CCC[C@@H]12` returned an RP-LC retention time of 727 s.

As for `COc1ccc(-c2noc(-c3ccc(N4CCN(c5ccccc5OC)CC4)nc3)n2)cc1`, the RP-LC retention time is 1310 s.

`CCN1C(=O)COc2ccc(-c3nc(NC(=O)CCc4ccccc4)sc3C)cc21` showed an RP-LC retention time of 1040 s.

`Cc1cc(F)ccc1NC(=O)c1cn2c(n1)CCCC2` displayed an RP-LC retention time of 600 s.

Regarding `CCOC(=O)c1noc2nc(C)nc(NC(C)c3ccccc3)c12` (stereo not given), the RP-LC retention time was found to be 1140 s.

`CCCNC(=O)C1CCCN(c2nc3ncn(CC(=O)Nc4ccc(F)cc4)c(=O)c3s2)C1` (stereo not given) showed an RP-LC retention time of 692 s.

`CCC(C)NC(=O)c1cc(C)n(C)n1` (stereo not given) returned an RP-LC retention time of 660 s.
